Patent publication US20160151451A1, “METHOD FOR GENERATING CARDIOMYOCYTES” (Korea Advanced Institute of Science and Technology (KAIST), priority 2014, published 2016)
Structures can show the parent of a compound that is named as a salt. Where two headings read alike, the source gives them in different places.

Legend:
[1] = test system: mouse ESC-derived Flk1^+ MPCs; test: Differentiation of mouse ESC-derived Flk1^+ MPCs into cardiomyocytes in OP9 co-culture; assay type: cell-based; conditions: for optimal dose of reagent, determined by total and relative number of differentiated cTnT^+ cells: dose optimization, FIGS. 2A-D
Protocol: (§1) For induction of Flk1^+ MPCs, ESCs and iPSCs were cultured without LIF and plated on a 0.1% gelatin-coated dish at cell density 1-1.5×10^3 cells/cm^2 in the differentiation medium (alpha MEM, Invitrogen) with 10% fetal bovine serum (FBS) (Welgene), 2-mercaptoethanol (Invitrogen), L-glutamine (Invitrogen), and antibiotics (Invitrogen), which was changed every 2 days, for 4.5 days. At day 4.5, differentiated ESCs and iPSCs were harvested with 0.25% trypsin-EDTA and antigen recovery was performed in the differentiation medium for 30 min in an incubator. Then, cells were washed using phosphate buffered saline (PBS)/2% FBS and incubated with biotin-conjugated anti-mouse Flk1^+ antibody (clone AVAS 12a1, eBioscience) and […] MicroBeads (Miltenyi Biotec). Flk1^+ MPCs were sorted by AutoMACS Pro Separator (Miltenyi Biotec). For induction of cardioblasts and cardiomyocytes, sorted Flk1^+ MPCs were plated onto the MMC (AG scientific) treated confluent OP9 cells at a density of 5-10×10^3 cells/cm^2. For the induction of cardiomyocytes in a feeder free system, ESCs were plated on a 0.1% gelatin coated dish at cell density 3×10^3 cells/cm^2 without OP9 cells. Cells were cultured in the differentiation medium which was changed every 2 days.
CsA (a gift from Novartis Pharma, Korea), 6-Hydroxy-2,5,7,8-tetramethylchroman-2-carboxylic acid (Trolox, Sigma Aldrich), and EW7197 (Son et al., 2014) were dissolved in dimethyl sulfoxide (DMSO, Sigma Aldrich). Y27632 (Calbiochem) was dissolved in distilled water. Reagents were treated at the time of medium change. DMSO was treated as a control vehicle.
(§2) Differentiating Flk1^+ MPCs on OP9 cells were harvested with 0.25% trypsin-EDTA or dissociation buffer (Invitrogen). […] To analyze cTnT^+ cells, the cells were permeabilized using Cytofix/Cytoperm solution (BD Biosciences) for 15 min. […] After washing in 10% Perm/Wash buffer (BD Biosciences), the cells were incubated for 10 min with Cy5-conjugated anti-mouse IgG antibody (Invitrogen). The cells were washed with 10% Perm/Wash buffer (BD Biosciences) and then analyzed. In live cell analysis and sorting, dead cells were excluded using 4,6-diamidino-2-phenylindole (DAPI, Invitrogen) and OP9 cells were excluded from Flk1^+ MPCs by gating in flow cytometry. The differentiated cardiomyocytes were sorted using αMHC-GFP. Analyses and sorting were performed by FACS Aria II (Beckton Dickinson). Data were analyzed using FlowJo Version 7.5.4 software (TreeStar).
The cells were fixed with 2% paraformaldehyde (PFA) and blocked with 5% goat (or donkey) serum in PBST (0.1% Tween 20 in PBS) for 1 hr at room temperature (RT). […] After being washed with PBST 3 times, the cells were incubated for 2 hr at room temperature with the following secondary antibodies: Cy3-conjugated anti-mouse IgG antibody (Invitrogen), FITC-conjugated anti-rat IgG (Jackson ImmunoResearch), and Cy3-conjugated anti-rabbit IgG (Jackson ImmunoResearch) antibodies. After being stained with the antibodies, the cells were mounted in fluorescent mounting medium (DAKO). Nuclei were stained with 4,6-diamidino-2-phenylindole (DAPI, Invitrogen). Immunofluorescence staining of mitochondria was performed using MitoTracker Orange CMTMRos probe (Invitrogen) and cells were incubated with probe for 30 to 60 min at 37° C. in serum free medium before fixation. Immunocytochemistry stained images were obtained using an LSM510 confocal fluorescence microscope (Carl Zeiss). Live images of cardiomyocyte differentiation process and αMHC GFP^+ cardiomyocytes were obtained using Axiovert 200M microscope (Carl Zeiss) equipped with AxioCam MRm (Carl Zeiss). Images were analyzed using Image J software (http://imagej.nih.gov/ij/, 1.47V, NIH, USA). Phase-contrast images including beating cardiomyocytes were obtained using an Infinity X digital camera and DpxView LE software (DeltaPix).

[2] = test system: mouse ESC-derived Flk1^+ MPCs; test: Induction of PDGFRα^+Flk1^− cardioblasts (PCBs) from mouse ESC-derived Flk1^+ MPCs; assay type: cell-based; conditions: each reagent of CsAYTE alone; FIGS. 11A, 11B
Protocol: as §1
Differentiating Flk1^+ MPCs on OP9 cells were harvested with 0.25% trypsin-EDTA or dissociation buffer (Invitrogen). […] To analyze cTnT^+ cells, the cells were permeabilized using Cytofix/Cytoperm solution (BD Biosciences) for 15 min. […] The cells were washed with 10% Perm/Wash buffer (BD Biosciences) and then analyzed. […] Data were analyzed using FlowJo Version 7.5.4 software (TreeStar).
The cells were fixed with 2% paraformaldehyde (PFA) and blocked with 5% goat (or donkey) serum in PBST (0.1% Tween 20 in PBS) for 1 hr at room temperature (RT). […] Immunocytochemistry stained images were obtained using an LSM510 confocal fluorescence microscope (Carl Zeiss). […] Images were analyzed using Image J software (http://imagej.nih.gov/ij/, 1.47V, NIH, USA). […]

PCBs = test: PCB-derived cardiomyocyte differentiation with indicated reagents after PCB induction, OP9 co-culture; assay type: cell-based, mouse; conditions: FIGS. 14B, 14C
Protocol: as §2

[3] = test system: delayed rectifying K^+ channels
[4] = test system: voltage-gated Na^+ channels; assay type: cell-based, mouse
ROCK = assay type: cell-based
Text: The meaning of “Rho-associated protein kinase (ROCK) inhibitor” is well known in the art. An assay for determining a ROCK suppressor or ROCK inhibitor can include for example the following method. ROCKs were discovered as the first effectors of Rho and they induce the formation of stress fibers and focal adhesions by phosphorylating MLC (myosin light chain). Therefore, an assay for determining ROCK suppression is confirming MLC phosphorylation inhibition such as by Western blotting.

T-type Ca^2+ channels = test: Voltage-clamp recording of T-type Ca^2+ current (ICaT) in M^+CMs; assay type: cell-based, mouse; conditions: 1 μM
[5] = in combination with CsA, data not shown

NC(=O)c1ncn([C@@H]2O[C@H](CO)[C@@H](O)[C@H]2O)c1N [AICAR]
effect on Flk1^+ MPC differentiation into cTnT^+ cells [1]: rather inhibited or did not affect

Cc1c[nH]c(-c2cnc(NCCNc3ccc(C#N)cn3)nc2-c2ccc(Cl)cc2Cl)n1 [CHIR99021]
effect on Flk1^+ MPC differentiation into cTnT^+ cells [1, 5]: rather inhibited or did not affect

c1cc(-c2cnn3cc(-c4ccc(OCCN5CCCCC5)cc4)cnc23)ccn1 [Compound C]
effect on Flk1^+ MPC differentiation into cTnT^+ cells [1, 5]: rather inhibited or did not affect

C[C@H](NC(=O)Cc1cc(F)cc(F)c1)C(=O)N[C@H](C(=O)OC(C)(C)C)c1ccccc1 [DAPT]
effect on Flk1^+ MPC differentiation into cTnT^+ cells [1, 5]: rather inhibited or did not affect

Cc1cccc(-c2[nH]c(CNc3ccccc3F)nc2-c2ccc3ncnn3c2)n1 [EW7197, N-[[4-([1,2,4]triazolo[1,5-a]pyridin-6-yl)-5-(6-methylpyridin-2-yl)-1H-imidazol-2-yl]methyl]-2-fluoroaniline]
optimal dose of reagent, determined by total and relative number of differentiated cTnT^+ cells [1]: 1 µg/mL | Flk1^+ MPC differentiation into PCBs by each reagent [2]: 45.3% | effect of omission of the reagent from CsAYTE on population of cTnT^+ and αMHC-GFP^+ cells (PCBs): slightly increased

CCC(=O)NC[C@H](Cc1ccc(OCCc2nc(-c3ccccc3)oc2C)cc1)N/C(C)=C\C(=O)c1ccc(C(F)(F)F)cc1 [GW6471]
effect on Flk1^+ MPC differentiation into cTnT^+ cells [1, 5]: rather inhibited or did not affect

Cn1c2ccccc2c2c3c(c4c5ccccc5n(CCC#N)c4c21)CNC3=O [Go6976]
effect on Flk1^+ MPC differentiation into cTnT^+ cells [1, 5]: rather inhibited or did not affect

CCCCCCOC(=O)[C@]1(O)C[C@@H]2O[C@@]1(C)n1c3ccccc3c3c4c(c5c6ccccc6n2c5c31)C(=O)NC4 [KT5720]
effect on Flk1^+ MPC differentiation into cTnT^+ cells [1, 5]: rather inhibited or did not affect

COC(=O)[C@@]1(OC)C[C@H]2O[C@]1(C)n1c3ccccc3c3c4c(c5c6ccccc6n2c5c31)C(=O)N(C)C4 [KT5823]
effect on Flk1^+ MPC differentiation into cTnT^+ cells [1, 5]: rather inhibited or did not affect

O=S(=O)(c1cccc2c(I)cccc12)N1CCCNCC1 [ML7]
effect on Flk1^+ MPC differentiation into cTnT^+ cells [1, 5]: rather inhibited or did not affect

COc1cccc(-c2cc(=O)c3ccccc3o2)c1N [PD98059]
effect on Flk1^+ MPC differentiation into cTnT^+ cells [1, 5]: rather inhibited or did not affect

CC[N+](CC)(CC)CC [TEA, tetraethylammonium]
delayed rectifier K^+ current (IK) [3]: inhibited

NC1=N[C@H](O)[C@H]2[C@H]3O[C@]4(O)O[C@@H]([C@@H](O)[C@@]2(N1)[C@@H]4O)[C@]3(O)CO [TTX, tetrodotoxin]
voltage gated Na^+ current (INa) [4]: inhibited

Cc1c(C)c2c(c(C)c1O)CCC(C)(C(=O)O)O2 (stereo not drawn) [Trolox, 6-hydroxy-2,5,7,8-tetramethylchroman-2-carboxylic acid]
optimal dose of reagent, determined by total and relative number of differentiated cTnT^+ cells [1]: 400 µM | Flk1^+ MPC differentiation into PCBs by each reagent [2]: 19.3%

C[C@@H](N)[C@H]1CC[C@H](C(=O)Nc2ccncc2)CC1 [Y27632, [(+)-(R)-trans-4-(1-aminoethyl)-N-(4-pyridyl)cyclohexanecarboxamidedihydrochloride]]
optimal dose of reagent, determined by total and relative number of differentiated cTnT^+ cells [1]: 10 µM | Flk1^+ MPC differentiation into PCBs by each reagent [2]: 22.0% | MLC phosphorylation in Flk1^+ MPCs during differentiation (ROCK): inhibits

COCC(=O)O[C@]1(CCN(C)CCCc2nc3ccccc3[nH]2)CCc2cc(F)ccc2[C@@H]1C(C)C [mibefradil]
T-type Ca^2+ currents (ICaT) (T-type Ca^2+ channels): inhibited
